Assay results as given in PMC6251916, “CKD-506, a novel HDAC6-selective inhibitor, improves renal outcomes and survival in a mouse model of systemic lupus erythematosus” (Scientific Reports, 2018).

Columns and labels:
[1] = test system: NZB/W F1 female mice; test: Murine SLE model: serum cytokine levels (Milliplex); assay type: in vivo, mouse; conditions: for Serum GM-CSF / Serum IFN-γ / Serum IL-1α / Serum IL-1β / Serum IL-2 / Serum IL-4 / Serum IL-6 / Serum IL-10 / Serum IL-12(70) / Serum IL-15 / Serum IL-17 / Serum IL-22 / Serum IL-23 / Serum TGF-β1 / Serum TNF-α: at autopsy, mean ± SD
Experimental: Serum samples were assayed using Milliplex® MAP Kits (Millipore) for granulocyte macrophage-colony stimulating factor (GM-CSF), interferon-γ (IFN-γ), interleukin-1α (IL-1α), IL-1β, IL-10, IL-12(p70), IL-15, IL-17a, IL-2, IL-4, IL-6, tumor necrosis factor α (TNF-α), transforming growth factor beta 1 (TGF-β1), IL-22, IL-23, IFN-inducible protein 10 (IP-10 (CXCL10)) and chemokine (C-C motif) ligand 2 (CCL2 (MCP-1)).

[2] = test system: NZB/W F1 female mice; test: Murine SLE model: survival, severe proteinuria, UP/C; assay type: in vivo, mouse; conditions: for Survival rate at the end of the study: 42-weeks of age; for incidence of severe proteinuria (urine protein >300 mg/dl): 42 weeks of age
Experimental: Survival had been monitored until 42 weeks of age.
During the experiments, urine protein levels had been measured every 2 weeks. Fresh urine was collected by performing abdominal massages. Urine protein was measured with the Coomassie Brilliant Blue method as described in our previous study. Urine creatinine was measured using a DRI-CHEM 3000 Colorimetric analyzer (Fujifilm, Tokyo, Japan) with the urine diluted in deionized water (1:100 dilution).

[3] = Pharmacokinetic analysis after single intraperitoneal injection; assay type: in vivo, NZB/W F1 mice; conditions: for AUCinf / AUC0-24hr / Cmax / T1/2 / Tmax: plasma, mean ± SD; for AUCinf: extrapolated
Experimental: Four 23-week old female NZB/W F1 mice were purchased from Jackson Laboratory and housed in CKD Research Institute animal facility. This study was reviewed and approved by the Institutional Animal Care and Use Committee of CKD Research Institute. All procedures were in compliance with Animal Welfare Act Regulations and the Guide for the Care and Use of Laboratory Animals. The indicated amount of CKD-506 was injected intraperitoneally into NZB/W F1 mice. Blood samples were collected from retro-orbital plexus using a heparinized capillary tube under diethyl-ether anesthesia at pre-dose (0) and 0.25, 1, 2, 4, 8 and 24 hours post-dose at day of PK sampling. After centrifugation at 13,000 rpm for 4 min and 4 °C, ten microliters of the separated plasma was dispensed into microtube and 120 μl of organic solvent (90% acetonitrile (in MeOH, v/v)) was immediately added for deproteinization/extraction. The pre-treated samples had been kept at −70 °C until analysis. Ten microliters of internal standard (verapamil 500 ng/ml in acetonitrile) was added into the pre-treated plasma samples and vortexed for 1 min and then, centrifuged at 13,000 rpm for 4 min and 4 °C. Eighty microliters of the supernatant of the sample were transferred into a 96 well-autosampler plate and 40 μl of HPLC water was then added in each well. The concentration of CKD-506 in samples were analyzed using API 4000 QTRAP (AB SCIEX) (Framingham, MA).

[4] = test system: NZB/W F1 female mice; test: Murine SLE model: serum chemistry and necropsy; conditions: for ALP / ALT / AST / Albumin / CPK / Ca / Total bilirubin / Total protein: serum at autopsy, mean ± SD
Experimental: Control mice received 150 μL of vehicle (Ethanol: Kolliphor® EL: saline = 1:1:8) and were subjected to the same schedule. Survival rate and incidence of severe proteinuria (percent individual mice with urine protein ≥300 mg/dL) were calculated. Survival had been monitored until 42 weeks of age.

[5] = group D: CKD-506 10 mg/kg/day, n = 10
[6] = group E: CKD-506 30 mg/kg/day, n = 14

CKD-506
serum levels of IP-10 vs vehicle ([1]; group CKD50, 36 weeks of age): significantly lower | Mean serum levels of CCL2 vs vehicle ([1]; group CKD50, 36 weeks of age, difference not statistically significant): lower | Serum GM-CSF [1, 5]: 2.65 ± 8.38 pg/mL | Serum IFN-γ [1, 5]: 1.06 ± 3.34 pg/mL | Serum IL-1α [1, 5]: 371.96 ± 261.58 pg/mL | Serum IL-1β [1, 5]: 1.27 ± 2.04 pg/mL | Serum IL-2 [1, 5]: 1.91 ± 5.61 pg/mL | Serum IL-4 [1, 5]: 1.74 ± 0.60 pg/mL | Serum IL-6 [1, 5]: 7.21 ± 7.41 pg/mL | Serum IL-10 [1, 5]: 25.00 ± 25.33 pg/mL | Serum IL-12(70) [1, 5]: 1.94 ± 3.69 pg/mL | Serum IL-15 [1, 5]: 184.36 ± 280.13 pg/mL | Serum IL-17 [1, 5]: 10.40 ± 12.20 pg/mL | Serum IL-22 [1, 5]: 27.05 ± 31.48 pg/mL | Serum IL-23 [1, 5]: 1.96 ± 6.20 pg/mL | Serum TGF-β1 [1, 5]: 73356.45 ± 22951.98 pg/mL | Serum TNF-α [1, 5]: 7.91 ± 8.45 pg/mL | Serum GM-CSF [1, 6]: 5.32 ± 15.20 pg/mL | Serum IFN-γ [1, 6]: 6.60 ± 15.24 pg/mL | Serum IL-1α [1, 6]: 458.40 ± 339.71 pg/mL | Serum IL-1β [1, 6]: 74.66 ± 264.02 pg/mL | Serum IL-2 [1, 6]: 9.32 ± 17.79 pg/mL | Serum IL-4 [1, 6]: 8.60 ± 25.44 pg/mL | Serum IL-6 [1, 6]: 21.23 ± 50.94 pg/mL | Serum IL-10 [1, 6]: 56.55 ± 146.53 pg/mL | Serum IL-12(70) [1, 6]: 74.50 ± 238.09 pg/mL | Serum IL-15 [1, 6]: 162.41 ± 200.63 pg/mL | Serum IL-17 [1, 6]: 21.14 ± 54.60 pg/mL | Serum IL-22 [1, 6]: 13.00 ± 16.48 pg/mL | Serum IL-23 [1, 6]: 100.56 ± 376.25 pg/mL | Serum TGF-β1 [1, 6]: 58807.36 ± 25015.67 pg/mL | Serum TNF-α [1, 6]: 16.25 ± 50.35 pg/mL | Serum GM-CSF ([1]; group F: 50 mg/kg/day, n = 14): 1.89 ± 7.09 pg/mL | Serum IFN-γ ([1]; group F: 50 mg/kg/day, n = 14): 2.07 ± 5.38 pg/mL | Serum IL-1α ([1]; group F: 50 mg/kg/day, n = 14): 629.16 ± 480.71 pg/mL | Serum IL-1β ([1]; group F: 50 mg/kg/day, n = 14): 3.86 ± 7.83 pg/mL | Serum IL-2 ([1]; group F: 50 mg/kg/day, n = 14): 4.09 ± 9.84 pg/mL | Serum IL-4 ([1]; group F: 50 mg/kg/day, n = 14): 3.70 ± 6.48 pg/mL | Serum IL-6 ([1]; group F: 50 mg/kg/day, n = 14): 5.69 ± 8.94 pg/mL | Serum IL-10 ([1]; group F: 50 mg/kg/day, n = 14): 8.31 ± 14.15 pg/mL | Serum IL-12(70) ([1]; group F: 50 mg/kg/day, n = 14): 15.62 ± 45.25 pg/mL | Serum IL-15 ([1]; group F: 50 mg/kg/day, n = 14): 26.24 ± 28.73 pg/mL | Serum IL-17 ([1]; group F: 50 mg/kg/day, n = 14): 4.82 ± 7.15 pg/mL | Serum IL-22 ([1]; group F: 50 mg/kg/day, n = 14): 6.37 ± 5.56 pg/mL | Serum IL-23 ([1]; group F: 50 mg/kg/day, n = 14): 41.34 ± 154.68 pg/mL | Serum TGF-β1 ([1]; group F: 50 mg/kg/day, n = 14): 73110.92 ± 17325.08 pg/mL | Serum TNF-α ([1]; group F: 50 mg/kg/day, n = 14): 1.24 ± 2.60 pg/mL | Survival rate at the end of the study ([2]; group CKD10: 10 mg/kg/day i.p.): 73.3% | incidence of severe proteinuria (urine protein >300 mg/dl) ([2]; group CKD10: 10 mg/kg/day i.p.): 13.3% | Survival rate at the end of the study ([2]; group CKD30: 30 mg/kg/day i.p.): 93.3% | incidence of severe proteinuria (urine protein >300 mg/dl) ([2]; group CKD30: 30 mg/kg/day i.p.): 6.7% | Survival rate at the end of the study ([2]; group CKD50: 50 mg/kg/day i.p.): 93.3% | incidence of severe proteinuria (urine protein >300 mg/dl) ([2]; group CKD50: 50 mg/kg/day i.p.): 0% | urine protein/urine creatinine (UP/C) ([2]; group CKD50, 42 weeks, not significantly different from other groups): lowest UP/C mean value | AUCinf ([3]; 10 mg/kg i.p. single): 818 ± 130 ng·h/mL | AUC0-24hr ([3]; 10 mg/kg i.p. single): 737 ± 104 ng/h/mL | Cmax ([3]; 10 mg/kg i.p. single): 1336 ± 95.6 ng/mL | T1/2 ([3]; 10 mg/kg i.p. single): 14.0 ± 2.60 h | Tmax ([3]; 10 mg/kg i.p. single): 0.25 ± 0.00 h | time for which dose is enough to inhibit in vivo HDAC6 activity ([3]; 30 mg/kg): more than 2 hr | AUCinf ([3]; 30 mg/kg i.p. single): 2129 ± 275 ng·h/mL | AUC0-24hr ([3]; 30 mg/kg i.p. single): 1997 ± 290 ng/h/mL | Cmax ([3]; 30 mg/kg i.p. single): 3749 ± 314 ng/mL | T1/2 ([3]; 30 mg/kg i.p. single): 9.64 ± 4.08 h | Tmax ([3]; 30 mg/kg i.p. single): 0.25 ± 0.00 h | time for which dose is enough to inhibit (90% of) in vivo HDAC6 activity ([3]; 50 mg/kg): more than 4 hr | AUCinf ([3]; 50 mg/kg i.p. single): 4321 ± 408 ng·h/mL | AUC0-24hr ([3]; 50 mg/kg i.p. single): 4028 ± 419 ng/h/mL | Cmax ([3]; 50 mg/kg i.p. single): 7276 ± 585 ng/mL | T1/2 ([3]; 50 mg/kg i.p. single): 10.0 ± 1.33 h | Tmax ([3]; 50 mg/kg i.p. single): 0.25 ± 0.00 h | exposure (Cmax and AUC) versus dose ([3]; 10, 30, 50 mg/kg i.p.): increased in a dose-dependent manner | plasma half-life (T1/2) ([3]; single IP, overall statement): about 10 hrs | appearance of the spleen, kidneys, liver, lungs, or heart (gross or microscopic examination at necropsy) ([4]; end of experiment): did not result in significant changes | serum ALT relative to reference range ([4]; group CKD50, significantly higher than the other groups): within the reference range | ALP ([4]; group D: CKD-506 10 mg/kg/day): 187.44 ± 62.24 U/l | ALT ([4]; group D: CKD-506 10 mg/kg/day): 18.10 ± 5.43 U/l | AST ([4]; group D: CKD-506 10 mg/kg/day): 44.20 ± 10.09 U/l | Albumin ([4]; group D: CKD-506 10 mg/kg/day): 1.91 ± 0.43 g/dL | CPK ([4]; group D: CKD-506 10 mg/kg/day): 86.70 ± 56.89 U/l | Ca ([4]; group D: CKD-506 10 mg/kg/day): 10.08 ± 1.26 mg/dL | Total bilirubin ([4]; group D: CKD-506 10 mg/kg/day): 0.22 ± 0.09 mg/dL | Total protein ([4]; group D: CKD-506 10 mg/kg/day): 4.74 ± 0.63 g/dL | ALP ([4]; group E: CKD-506 30 mg/kg/day): 155.92 ± 19.94 U/l | ALT ([4]; group E: CKD-506 30 mg/kg/day): 20.79 ± 2.91 U/l | AST ([4]; group E: CKD-506 30 mg/kg/day): 55.21 ± 19.34 U/l | Albumin ([4]; group E: CKD-506 30 mg/kg/day): 2.19 ± 0.43 g/dL | CPK ([4]; group E: CKD-506 30 mg/kg/day): 84.71 ± 31.40 U/l | Ca ([4]; group E: CKD-506 30 mg/kg/day): 9.65 ± 0.69 mg/dL | Total bilirubin ([4]; group E: CKD-506 30 mg/kg/day): 0.26 ± 0.12 mg/dL | Total protein ([4]; group E: CKD-506 30 mg/kg/day): 5.21 ± 0.71 g/dL | ALP ([4]; group F: 50 mg/kg/day): 153.08 ± 17.25 U/l | ALT ([4]; group F: 50 mg/kg/day): 29.07 ± 12.21 U/l | AST ([4]; group F: 50 mg/kg/day): 59.00 ± 56.14 U/l | Albumin ([4]; group F: 50 mg/kg/day): 2.26 ± 0.35 g/dL | CPK ([4]; group F: 50 mg/kg/day): 125.86 ± 177.18 U/l | Ca ([4]; group F: 50 mg/kg/day): 9.43 ± 0.59 mg/dL | Total bilirubin ([4]; group F: 50 mg/kg/day): 0.28 ± 0.14 mg/dL | Total protein ([4]; group F: 50 mg/kg/day): 5.35 ± 0.60 g/dL
